Results taken from publication PMC6208384 (2018).
pKd: −log10 of the molar value. Blank lines part the entries; values can stand above or below the molecule they belong to.

Assays:
[1] = tested on: DIR2s_GAAACAC (RNA, aptamer) GGAUGCGCCUUGAAAAGCCUGCGAAACACGCAGCUGGUGAAUGACAGCUAUGGCGCAUCC; experiment: fluorescence activation; details: 150 mM NaCl, 5 mM MgCl2; 50 mM Tris pH 7.4, 20 °C; loop version (UUCG or GAAACAC) not stated
[2] = tested on: Fab BL3-6, PDB:6DB9_2+PDB:6DB9_3; experiment: filter binding; details: 5 mM Mg2+; no dye mentioned; Filter binding: 50 mM Tris pH 7.4, 150 mM NaCl, 5 mM MgCl2, 0.1 U/uL RNase inhibitor, 2 nM-2 uM Fab, 30 min; RNA refolded at 50 C then RT (binding temperature …)
[3] = tested on: DIR2s_GAAACAC (RNA, aptamer) GGAUGCGCCUUGAAAAGCCUGCGAAACACGCAGCUGGUGAAUGACAGCUAUGGCGCAUCC; experiment: fluorescence competition; details: 150 mM NaCl, 5 mM MgCl2; 50 mM Tris pH 7.4, 20 °C; OTB-SO3 displaced, 500 nM RNA, 600 nM OTB-SO3
[4] = tested on: DIR2s_GAAACAC (RNA, aptamer) GGAUGCGCCUUGAAAAGCCUGCGAAACACGCAGCUGGUGAAUGACAGCUAUGGCGCAUCC; experiment: fluorescence titration; details: 150 mM NaCl, 5 mM MgCl2; 50 mM Tris pH 7.4, 20 °C; construct assigned from review file b5063
[5] = tested on: DIR2s_WT (UUCG) (RNA, aptamer) GGAUGCGCCUUGAAAAGCCUGCUUCGGCAGCUGGUGAAUGACAGCUAUGGCGCAUCC; experiment: fluorescence activation; details: 150 mM NaCl, 5 mM MgCl2; 50 mM Tris pH 7.4, 20 °C
[6] = tested on: G39, A40, A41 to U (RNA, aptamer) GGAUGCGCCUUGAAAAGCCUGCGAAACACGCAGCUGGUUUUUGACAGCUAUGGCGCAUCC; experiment: fluorescence activation; details: 150 mM NaCl, 5 mM MgCl2; 50 mM Tris pH 7.4, 20 °C; RNA 3 µM, dye 6 µM; fluorescence abolished
[7] = tested on: A15C; A40, A41 to G (RNA, aptamer) GGAUGCGCCUUGAACAGCCUGCGAAACACGCAGCUGGUGGGUGACAGCUAUGGCGCAUCC; experiment: fluorescence activation; details: 150 mM NaCl, 5 mM MgCl2; 50 mM Tris pH 7.4, 20 °C; RNA 3 µM, dye 6 µM; fluorescence abolished
[8] = tested on: Abasic G39 (RNA, aptamer, abasic at 39) GGAUGCGCCUUGAAAAGCCUGCGAAACACGCAGCUGGUNAAUGACAGCUAUGGCGCAUCC; experiment: fluorescence activation; details: 150 mM NaCl, 5 mM MgCl2; 50 mM Tris pH 7.4, 20 °C; RNA 3 µM, dye 6 µM; fluorescence diminished
[9] = tested on: Abasic A40 (RNA, aptamer, abasic at 40) GGAUGCGCCUUGAAAAGCCUGCGAAACACGCAGCUGGUGNAUGACAGCUAUGGCGCAUCC; experiment: fluorescence activation; details: 150 mM NaCl, 5 mM MgCl2; 50 mM Tris pH 7.4, 20 °C; RNA 3 µM, dye 6 µM; fluorescence diminished
[10] = tested on: A40U (RNA, aptamer) GGAUGCGCCUUGAAAAGCCUGCGAAACACGCAGCUGGUGUAUGACAGCUAUGGCGCAUCC; experiment: fluorescence activation; details: 150 mM NaCl, 5 mM MgCl2; 50 mM Tris pH 7.4, 20 °C; RNA 3 µM, dye 6 µM; fluorescence as WT
[11] = tested on: A41U (RNA, aptamer) GGAUGCGCCUUGAAAAGCCUGCGAAACACGCAGCUGGUGAUUGACAGCUAUGGCGCAUCC; experiment: fluorescence activation; details: 150 mM NaCl, 5 mM MgCl2; 50 mM Tris pH 7.4, 20 °C; RNA 3 µM, dye 6 µM; fluorescence as WT
[12] = tested on: 5 bp P1 (RNA, aptamer) GGCCUUGAAAAGCCUGCGAAACACGCAGCUGGUGAAUGACAGCUAUGGCC; experiment: fluorescence activation; details: 150 mM NaCl, 5 mM MgCl2; 50 mM Tris pH 7.4, 20 °C; RNA 3 µM, dye 6 µM; fluorescence as WT
[13] = tested on: 0 bp P1 (RNA, aptamer) GGAAAAGCCCGCGAAACACGCAGCUGGUGAAUGACAGCU; experiment: fluorescence activation; details: 150 mM NaCl, 5 mM MgCl2; 50 mM Tris pH 7.4, 20 °C; RNA 3 µM, dye 6 µM; ca. 80% of WT fluorescence
[14] = tested on: DIR2s_GAAACAC (RNA, aptamer) GGAUGCGCCUUGAAAAGCCUGCGAAACACGCAGCUGGUGAAUGACAGCUAUGGCGCAUCC; experiment: X-ray crystal structure, 1.86 Å; details: 10 mM MgCl2, 1.8 M Li2SO4; 50 mM MES pH 5.6; ternary complex with Fab BL3-6

- binding [1]: yes
Molecule: CN1C=CC(=Cc2sc3ccccc3[n+]2CC(=O)NCCOCCOCCOCCNC(=O)CCCC[C@@H]2SC[C@@H]3NC(=O)N[C@@H]32)c2ccccc21

Molecule: GGAUGCGCCUUGAAAAGCCUGCGAAACACGCAGCUGGUGAAUGACAGCUAUGGCGCAUCC [DIR2s_GAAACAC RNA]
- pKd [2]: 7.17

- binding [3]: yes
Molecule: CN1C(=CC=Cc2cc[n+](CCCS(=O)(=O)[O-])c3ccccc23)C(C)(C)c2ccccc21

- Kd [4]: 708 ± 16 nM
- binding [5]: yes
- binding [6]: no
- binding [7]: no
- binding [8]: weak
- binding [9]: weak
- binding [10]: yes
- binding [11]: yes
- binding [12]: yes
- binding [13]: yes
- binding [14]: yes
Molecule: CN1/C(=C/c2sc3ccccc3[n+]2CCCS(=O)(=O)[O-])Oc2ccccc21
